Where two headings read alike, the source gives them in different places.
Columns and labels:
PTH1R = conditions: ref [22]; cited from earlier work
Source text: It is unclear why ABL stimulates lower expression of bone resorption-related factors than TPTD with transient treatment only. Recently, it was reported that PTH1R has at least two types of active conformations and that the binding conformation selectivity differs between ABL and TPTD [21, 22]. This difference further affects the duration of the downstream signaling. […] We therefore thought that the difference in bone resorption-related factors could arise from the d ...

OVX rats [1] = assay: L4 vertebral bone strength in OVX rats; format: in vivo, Sprague–Dawley rats (female); conditions: once daily s.c. for 28 days, day 28, vs OVX, n = 8 or 9
Source text: (§1) Ten-week-old female Sprague–Dawley rats were purchased from Charles River Laboratories Japan, Inc. (Kanagawa, Japan) and ovariectomized at 12 weeks old. Thirty-five days after surgery, rats received once daily subcutaneous injection of ABL, TPTD, or vehicle (saline containing 0.1% heat-inactivated rat serum) for 28 days. Day 0 indicates the day when administration was started. On day 26, rats were anesthetized with intraperitoneally administered pentobarbital sodium and the lumbar spine (L4 and L5) BMD was measured with a PIXImus2 (GE Healthcare, Chicago, IL). Blood (collected from the tail vein) and urine samples were obtained on day 28. Prior to collection, rats were fasted for 15–17 h. Rats were euthanized after the blood and urine collection, and the lumbar spine was removed for the measurement of bone strength. All experimental procedures were approved by the Animal Care and Use Committee of Teijin Institute for Bio-Medical Research.
L4 was isolated from the lumbar spine. The height of the vertebral body was measured with a vernier caliper. To obtain vertebral body specimens, the cranial and caudal ends of the vertebral body were cut with a diamond saw to a height of 4 mm. Bone strength was measured with a MZ-500S (MARUTO Testing Machine Company, Tokyo, Japan).

[2] = test system: patients with osteoporosis; conditions: cited from earlier work
[3] = cited from earlier work
[4] = test system: rat osteoblastic cell line UMR-106; assay: cAMP accumulation assay in UMR-106; format: cell-based; conditions: for cAMP accumulation, in words: UMR-106, 10 min (Fig. 1b), n = 3 replicate wells; for EC50 / Emax, cAMP accumulation: UMR-106, 10 min, 2 mmol/L 3-isobutyl-1-methylxanthine, mean ± s.e.m., three independent experiments, each triplicate; for EC50: P = 0.0067 ABL vs TPTD; for Emax, cAMP accumulation: P = 0.84 ABL vs TPTD
Method: The human osteoblastic cell line SaOS-2 and the rat osteoblastic cell line UMR-106 were purchased from the European Collection of Cell Cultures (Wiltshire, UK). SaOS-2 and UMR-106 were maintained in growth medium (GM): McCoy’s 5A (for SaOS-2) or Dulbecco’s Modified Eagle’s Medium (for UMR-106) supplemented with 10% FBS and 1% penicillin/streptomycin at 37 °C with 5% CO2. To initiate cell differentiation, cells were grown in differentiation medium (DM): GM containing 50 µg/mL ascorbic acid, 10 mmol/L β-glycerophosphate, and 10 nmol/L dexamethasone. The culture medium was exchanged every 6 days or less.
Cells were cultured in 96-well plates at a density of 4 × 10^4 cells/well in GM overnight. The medium was replaced with serum-free GM (containing 0.1% BSA instead of 10% FBS) for culture under starvation conditions. Twenty-four hours after the start of starvation, ABL, TPTD, or vehicle (water containing 0.1% BSA) were added to the cells with 2 mmol/L of 3-isobutyl-1-methylxanthine for 10 min. Cells were lysed and accumulated cAMP was measured using the cAMP-Screen System (Applied Biosystems, Waltham, MA, USA) according to the manufacturer’s instructions.
All data are expressed as means ± s.e.m. For calculation of EC50 and Emax, 4-parameter logistic curve fitting was performed. Student’s t test was used for two-group comparisons. Dunnett’s or Tukey’s test was used for multiple comparisons. Significance was inferred from P values of < 0.05. All data were analyzed using GraphPad Prism version 6.03 (GraphPad Software, La Jolla, CA, USA).

OVX rats [5] = assay: Lumbar spine (L4-L5) BMD in OVX rats; format: in vivo, Sprague–Dawley rats (female); conditions: once daily s.c. for 28 days, BMD on day 26 (PIXImus2), vs OVX, n = 8 or 9
Source text: as §1

SaOS-2 = assay: M-CSF protein secretion (ELISA); format: cell-based, human; conditions: 100 nmol/L, n = 3; for M-CSF protein secretion: continuous treatment (Fig. 2c), ABL and TPTD did not differ significantly
Method: SaOS-2 was cultured in 48-well plates at a density of 5 × 10^4 cells/well in DM for 10 days. The medium was replaced with serum-free DM for culture under starvation conditions. Twenty-four hours after the start of starvation, cells were treated with ABL and TPTD at a concentration of 100 nmol/L. Six hours after treatment, cells were washed with PBS twice, and cultured with peptide-free or peptide-containing medium for the rest of the experimental period.
Human Quantikine M-CSF, Sclerostin, and DKK1 ELISA kits (R&D Systems, Minneapolis, MN, USA) were used to quantify M-CSF, sclerostin, and DKK1, respectively, in the cell supernatants according to the manufacturer’s instructions.

OVX rats [6] = assay: Bone formation marker serum P1NP in OVX rats; format: in vivo, Sprague–Dawley rats (female); conditions: once daily s.c., day 28, vs OVX, n = 8 or 9
Source text: as §1
Serum P1NP concentration was measured with a Rat/Mouse PINP EIA kit (Immunodiagnostic Systems, Boldon, UK). Urine DPD concentration was measured with an Osteolinks DPD kit (Quidel, San Diego, CA, USA). Urine creatinine (Cr) concentration was measured with a 7180 Autoanalyzer (Hitachi High-Technologies Corporation, Tokyo, Japan).

osteocytes = conditions: ref [11], [12]; cited from earlier work
Source text: The mechanism of action of TPTD on bone turnover is not fully understood; however, many studies have examined the molecular mechanisms in recent decades. According to a previous study, PTH(1–34) acts on osteoblasts and indirectly induces bone resorption by activating osteoclasts. PTH(1–34) increases the expression of receptor activator of nuclear factor kappa-B ligand (RANKL) and macrophage colony-stimulating factor (M-CSF) and decreases the expression of osteoprotegerin (OPG), a decoy receptor of RANKL [9]. These effects of PTH(1–34) further promote the maturation of osteoclasts with ... || Finally, we evaluated the effects of ABL on WNT signaling antagonists. WNT signaling antagonists such as sclerostin and DKK1 are secreted from osteocytes. They inhibit bone formation by antagonizing canonical WNT ligands and subsequently suppress WNT-mediated signaling pathways. […] We therefore evaluated the effects of ABL on WNT signaling antagonists in comparison with TPTD. It is generally known that human osteocytes have been diffic ...

[7] = subcutaneous injection, ref [14]

Substance	duration of cAMP production after wash-out of unbound ligand (PTH1R)	lumbar spine (L4) bone strength (OVX rats [1])	BMD at the hip and spine ([2]; daily subcutaneous, ref [14])	incidence of vertebral and non-vertebral fractures ([2]; daily subcutaneous, ref [14])	calcemic effect vs TPTD ([2]; human, in vivo, sc)	bone formation and resorption markers ([2]; ref [14])	bone formation and resorption markers vs TPTD ([2]; ref [14])	bone formation marker [2, 7]	bone resorption marker vs TPTD [2, 7]	half-life in humans ([3]; human, in vivo, sc)	cAMP accumulation, in words [4]	EC50 [4] [nM]	Emax, cAMP accumulation [4] [nmol/L]	lumbar spine BMD (OVX rats [5])	M-CSF protein secretion (SaOS-2)	M-CSF protein secretion, ABL vs TPTD (SaOS-2; transient treatment (first 6 h) (Fig. 2e))	serum P1NP (OVX rats [6])	expression of WNT signaling antagonists in osteocytes (osteocytes)	secretion of WNT signaling antagonists such as sclerostin and DKK1 (osteocytes)	half-life in humans ([3]; subcutaneous injection, ref [27], [28])
[Glu^22,25, Leu^23,28,31, Aib^29, Lys^26,30] human PTHrP(1–34)–NH2 [Abaloparatide]	transient	significantly increased	robust BMD increases	reduced incidence	reduced as compared with TPTD	increased both bone formation and resorption	attenuated as compared with TPTD	increased	less stimulation of the bone resorption marker than observed for TPTD	approximately an hour or less	dose-dependently increased cAMP	0.84 ± 0.03	278.4 ± 20.8	significantly increased	increased	significantly less with ABL treatment than with TPTD	significantly increased	–	–	–
human PTH(1–34) [Teriparatide]	sustained after the unbound ligand is washed out	significantly increased	–	–	–	–	–	–	–	–	dose-dependently increased cAMP	1.18 ± 0.06	271.4 ± 25.0	significantly increased	increased	–	significantly increased	inhibited	inhibiting	approximately an hour or less

Reference: article PMC6105163, “Abaloparatide Exerts Bone Anabolic Effects with Less Stimulation of Bone Resorption-Related Factors: A Comparison with Teriparatide” (Calcified Tissue International, 2018)
